# According to patent publication US20260272895A1, “METHODS AND KITS FOR DELIVERY OF COMPOUNDS INTO CELLS” (Yale University, priority 2023, published 2026):
# How the values were obtained:
# Slco1a4 [1] = target: T1, Slco1a4 (Mus musculus, UniProt Q9EP96); assay: Compound uptake in HEK293 cells transfected with Slco1a4; type: cell-based; design: FLAG; expressed in transfected cells
# T1 sequence (Q9EP96 1-670): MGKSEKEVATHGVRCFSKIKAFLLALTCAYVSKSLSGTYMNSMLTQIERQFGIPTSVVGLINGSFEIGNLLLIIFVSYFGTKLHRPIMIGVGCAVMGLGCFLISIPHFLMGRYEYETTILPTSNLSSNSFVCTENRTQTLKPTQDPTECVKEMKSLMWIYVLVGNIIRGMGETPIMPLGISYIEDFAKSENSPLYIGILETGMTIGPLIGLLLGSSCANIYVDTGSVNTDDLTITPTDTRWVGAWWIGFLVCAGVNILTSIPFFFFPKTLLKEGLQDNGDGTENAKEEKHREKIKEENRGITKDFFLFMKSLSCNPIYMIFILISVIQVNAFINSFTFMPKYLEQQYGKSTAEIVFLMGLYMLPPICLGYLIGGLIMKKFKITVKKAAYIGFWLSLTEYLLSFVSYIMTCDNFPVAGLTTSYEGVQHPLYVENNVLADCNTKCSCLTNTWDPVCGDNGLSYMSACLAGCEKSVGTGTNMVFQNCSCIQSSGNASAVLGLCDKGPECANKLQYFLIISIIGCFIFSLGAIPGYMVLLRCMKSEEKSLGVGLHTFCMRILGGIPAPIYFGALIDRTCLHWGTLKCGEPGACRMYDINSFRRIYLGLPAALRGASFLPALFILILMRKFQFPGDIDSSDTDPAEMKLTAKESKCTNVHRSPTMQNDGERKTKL
# Protocol: HEK293 cells are cultured and seeded at ~60% confluency in 24-well plates and are transiently transfected with 250 ng of a candidate transporter and 1 μL transfection reagent (JetPRIME). After 2 days, cells are washed and novel fluorescent probes at different concentrations are added to the transport medium and incubated at 37° C., for at least 30 minutes. To terminate the transport, cells are washed with PBS and fixed with 4% paraformaldehyde. The colocalization of probe uptake and cells expressing the transporters is investigated by immunostaining the transporter which has a fused FLAG tag, using anti-FLAG 488. Before confocal imaging, nuclei are labeled with Hoechst 33342 and cells are mounted and imaged on a Leica SP8 confocal microscope.
# For in vitro experiments, HEK293 cells were cultured and seeded in 24-well plates, reaching approximately 60% confluency. For transient transfection, 250 ng of a candidate transporter plasmid and 1 μL of transfection reagent (JetPRIME) were added to the cells. After a 2-day incubation period, the cells were washed, and novel fluorescent probes were introduced into the transport medium at various concentrations. The cells were then incubated at 37° C., for a minimum of 30 minutes to allow for uptake. To stop the transport process, the cells were washed with PBS and fixed using 4% paraformaldehyde. Immunostaining of the transporter, which was fused with a FLAG tag, was performed using an anti-FLAG 488 antibody. Before confocal imaging, the cell nuclei were labeled with Hoechst 33342. Finally, the cells were mounted and imaged using a Leica SP8 confocal microscope.
# Slco1a4 [2] = target: T1, Slco1a4; assay: In vivo two-photon imaging in Slco1a4 knockout mice (Oatp1a/1b cluster knockout); design: FLAG; expressed in transfected cells; host or cells: cortical neurons of live mice, in utero electroporation at E14/E15
# Protocol: Briefly, animals are anaesthetized via intraperitoneal injections of ketamine/xylazine or via inhaled isoflurane. A region of the skull (3×3 mm) is gently removed with a high-speed drill and the underlying dura is removed. A small glass coverslip is placed over the skull to allow long term optical access for in vivo imaging. Labeling with fluorescent dyes is performed either via intravenous injections or topically application to the cortical surface for 20 min prior to glass cover placement. After recovery, in vivo images are acquired using a two-photon microscope (Bruker Technologies) equipped with a multimodal (fixed wavelength 1040 nm and tunable wavelength) InSight X3 two-photon laser (Spectra Physics) and 20× water immersion objective (Zeiss 1.0N.A.). The two-photon laser is appropriately tuned to excite particular fluorescent dyes and proteins as needed. In selected cases, following in vivo imaging, mice will be sacrificed and perfused for follow up immunohistochemistry and high-resolution confocal imaging (Leica SP8) to further confirm colocalization of dyes and cells expressing particular transporters.
# One-month-old wild-type mice were anesthetized using a ketamine/xylazine solution at doses of 100 mg/kg and 10 mg/kg, respectively. The fur around the skull area was shaved, and buprenex (0.1 mg per kg) and carprofen (5 mg per kg) were administered subcutaneously. Mice were kept on a heating pad at 37° C., and anesthesia was periodically monitored. The skin was treated with povidone-iodine solution, followed by cleaning with ethanol, and eye ointment was applied. A small skin section was excised to expose the skull. Thinning of the skull was performed in a circular area, followed by delicately lifting of the remaining skull without harm to the underlying brain. Within the circular region, the dura was gently removed using fine forceps, and a 4 mm cover glass was softly pressed onto the brain surface and affixed to the skull. […]
Compound,uptake in Slco1a4 transfected HEK293 cells (Slco1a4 [1]; 10 μM),"endothelial uptake in Slco1a4 knockout mice (Slco1a4 [2]; topical cortical administration 50 μM, compared to wildtype)",uptake in Slco1a4 transfected HEK293 cells (Slco1a4 [1]; concentration not given),astrocyte uptake in knockout mice (Slco1a4 [2]; Oatp1a/1b cluster knockout),"endothelial uptake in Slco1a4 knockout mice (Slco1a4 [2]; application to cortical surface, concentration not given)"
"COc1cc2c(c(OC)c1OC)-c1ccc(OC)c(=O)cc1C(NS(=O)(=O)c1ccc(-c3c4ccc(N(C)C)cc4[o+]c4cc(N(C)C)ccc34)c(S(=O)(=O)[O-])c1)CC2 (centres unmarked) [Compound 47, 2-(3,6-bis(dimethylamino)xanthylium-9-yl)-5-(N-(1,2,3,10-tetramethoxy-9-oxo-5,6,7,9-tetrahydrobenzo[a]heptalen-7-yl)sulfamoyl)benzenesulfonate]",robust and selective uptake,complete elimination of Colchicine-eEDiTS uptake,–,–,–
"O=S(=O)([O-])c1cc(S(=O)(=O)O)ccc1C1=c2cc3c4c(c2Oc2cc(Br)ccc21)CCC[N+]=4CCC3 [Compound 1, 2-(12-bromo-1,2,3,5,6,7-hexahydrochromeno[2,3-f]pyrido[3,2,1-ij]quinolin-4-ium-9-yl)-5-sulfobenzenesulfonate]",–,–,only those cells expressing SLCO1A4 (as evidenced by anti-FLAG labeling-green) take up compound 1,Astrocyte uptake is seen in the knockout mice,complete disappearance of endothelial uptake
